System: mouse FSGS model (adriamycin-induced, BALB/c mice)
Assay: Mouse FSGS model: urine protein and renal function (serum BUN, Cr)
Format: in vivo
Conditions: Citral 200 mg/kg daily by gavage
Method: A progressive type of mouse FSGS model was used, particularly characterized by EPHLs, a key histopathology index of progression of FSGS, peri-glomerular inflammation, and progressive glomerular hyalinosis/sclerosis. The FSGS model was induced in 8-week-old male BALB/c mice (National Laboratory Animal Center, Taipei, Taiwan) by intravenous injection of a single dose of adriamycin (0.10 mg/10 g body weight) (Pfizer, New York, N.Y.) as described previously. […] Age- and sex-matched BALB/c mice were used as normal controls. Urine samples were collected in metabolic cages on days 3, 7, 14, 21, and 28. Renal cortical tissues and blood samples were collected when the mice were sacrificed and stored appropriately for further analysis. The concentration of urine protein was determined using BCA kits (Pierce, Rockford, Ill.) as described previously and normalized to urine creatinine (Cr) levels measured using kits (Wako Pure Chemical Industries, Osaka, Japan), as described previously. Serum levels of blood urea nitrogen (BUN) and Cr were determined using BUN kits and Cr kits (both from Fuji Dry-Chem Slide, Fuji Film Medical, Tokyo, Japan), as described previously. Urine and blood samples were collected from the mice at different time points, which were analyzed for proteinuria and blood urea nitrogen (BUN) and creatinine (Cr) levels by using a urease assay and a picric acid method respectively (Nephron 1998; 78: 440-452).

In the case of `CC(C)=CCCC(C)=CC=O` (racemic) [Citral, 3,7-dimethyl-2,6-octadienal], the “proteinuria (urine protein)” value (day 14, FSGS+Citral vs FSGS+vehicle mice) is reported as “slightly inhibited”, the “proteinuria (urine protein)” value (day 21, vs FSGS+vehicle mice, p<0.005) is reported as “markedly inhibited” and the “proteinuria (urine protein)” value (day 28, vs FSGS+vehicle mice, p<0.01) is reported as “markedly inhibited”. For the same compound, the “serum levels of BUN” value (days 14 and 28, p<0.05) was “almost, or completely, suppressed” and the “serum levels of Cr” value (days 14 and 28, p<0.05) was “almost, or completely, suppressed”.
